Results as given in patent US12054562B2, “Cell-permeable inhibitory agent and methods of use thereof in treatment of cognitive and mood disorders” (priority 2015, dated 2024).

Assays:
[1] = target: T1, α5 subunit-radixin interaction (Mus musculus, UniProt P26043); assay: Co-immunoprecipitation and Western blot of α5 subunit-radixin coupling in hippocampal tissue lysate; assay type: binding; settings: 20 μM peptide without TAT sequence, one hour incubation
T1 construct: tissue lysate prepared from the hippocampus of adult mice; from tissue; host or cells: hippocampus of adult mice (C57BL/6J×SvEv)
T1 sequence (P26043 whole entry): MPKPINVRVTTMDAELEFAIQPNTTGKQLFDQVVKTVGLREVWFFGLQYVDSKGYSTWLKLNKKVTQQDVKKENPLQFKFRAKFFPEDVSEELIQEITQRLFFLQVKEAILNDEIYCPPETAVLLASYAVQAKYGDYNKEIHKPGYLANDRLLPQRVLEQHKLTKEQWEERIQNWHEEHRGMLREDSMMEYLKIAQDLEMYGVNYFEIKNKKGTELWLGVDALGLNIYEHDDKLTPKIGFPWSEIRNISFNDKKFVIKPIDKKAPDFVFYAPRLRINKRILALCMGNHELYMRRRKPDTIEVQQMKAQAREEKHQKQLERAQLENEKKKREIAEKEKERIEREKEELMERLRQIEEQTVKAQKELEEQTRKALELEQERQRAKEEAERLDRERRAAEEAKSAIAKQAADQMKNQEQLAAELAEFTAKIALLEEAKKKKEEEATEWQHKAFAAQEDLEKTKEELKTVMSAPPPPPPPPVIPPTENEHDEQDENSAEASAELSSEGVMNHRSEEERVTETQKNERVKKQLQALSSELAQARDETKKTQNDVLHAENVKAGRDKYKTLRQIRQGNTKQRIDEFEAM
Protocol: The experiments used tissue lysate prepared from the hippocampus of adult mice (C57BL/6J×SvEv, 2-4 month old, male). Hippocampal tissue was homogenized in ice-cold RIPA buffer (20 mM Tris-HCL, pH 7.5, 150 mM NaCl, 1 mM Na2EDTA, 1 mM EGTA, 1% NP-40, 1% sodium deoxycholate, 2.5 mM sodium pyrophosphate, 1 mM β-glycerophosphate) supplemented with 1 mM sodium orthovanadate and 1% protease inhibitor cocktail and 1% phosphatase inhibitor cocktail (Roche Diagnostics, GmbH, Manheim Germany). The tissue lysate was subsequently spun at 14,000 rpm for 30 min with the Microfuge 22R Centrifuge (Beckman Coulter™, Brea, California, US). The supernatant was collected and frozen at −20 C°. The next day, the supernatant, after thawing, was re-centrifuged at 14,000 rpm for another 30 min to clear the potential undissolved or pellet substances. After spinning twice, the supernatant was collected for subsequent experiments.
One hour following the incubation, the antibodies (2-4 μg) against either α5 subunit (cat #sc—31417, Santa Cruz Biotechnology, Inc., 10410 Finnell St. Dallas, TX, 75220, USA) or radixin (cat #ab91312, Abcam Inc., c/o 913860, PO Box 4090 Stn A, Toronto, ON M5W 0E9), or 4 μg of non-specific IgG protein (cat #sc—2028, Santa Cruz Biotechnology, Inc., 10410 Finnell St. Dallas, TX, 75220, USA), were added to the lysate solution. […]

[2] = system: α5GABAA receptor cell-surface expression; assay: Receptor cell-surface ELISA assay in cultured hippocampal neurons; assay type: cell-based, mouse; settings: peptide 2 μM, 24 hrs, astrocyte-conditioned medium (etomidate 1 μM, 1 hr)
Protocol: This experimental cell culture model was used to test the effects of the inhibitory peptide on an overexpression of α5GABAA receptors on the surface of neurons. The medium from astrocytes that were treated with etomidate (1 μM, 1 hr) (conditioned medium) was collected, and the medium bathing cultured hippocampal neurons was exchanged with the astrocyte-conditioned medium. The cells were incubated at 37° C., 5% CO2 with the peptide or scramble peptide (2 μM). After 24 hrs incubation, the cells were used for receptor cell-surface ELISA assay. The cells were fixed in 4% paraformaldehyde for 20 min in the presence (permeabilized) or absence (non-permeabilized) of 1% Triton-X100. The cells, after 3 times wash with cold PBS and blocked with 5% bovine album solution, were incubated with a α5 antibody (Santa Cruz Biotech Inc.) at 4° C. overnight. The next day the cells were thoroughly washed with PBS and incubated with the horseradish peroxidase (HRP)-conjugated secondary antibody for 2 hrs. With HRP substrate added and color developed in the medium, the results were determined with microplate reader.
The cell surface expression of α5 subunit was presented as the ratio of the colorimetric reading under non-permeabilized conditions to those permeabilized conditions. Consistent with the previous report, etomidate increases α5GABAA receptor surface expression. This increase was blocked by the specific peptide, but not the scramble peptide (FIG. 6A).
For astrocyte culture, cortical astrocytes were isolated from embryonic day 18 (E18) mouse embryos. Cells were allowed to grow to confluence in MEM and 10% fetal bovine serum (FBS; Life Technologies, Grand Island, New York) for 14 d. Cells were then enzymatically dissociated with trypsin-EDTA (0.05%; Life Technologies, Grand Island, New York), and passaged three times to obtain a nearly pure astrocytic culture. Astrocytes were then plated at a density of 25,000 cells per dish. […]

## NYFTKRGWAWDGKKAL [inhibitory peptide]
[1]
  association between α5 subunit and radixin: reduced the association
[2]
  etomidate-induced increase in α5GABAA receptor surface expression: blocked
